US6645976B1 (Eli Lilly and Company, priority 1994, dated 2003)
pIC50: −log10 of the molar value.

Experiments:
[1] = molecular target: T1, recombinant human secreted phospholipase A2 (Homo sapiens, UniProt P14555); assay: sPLA2 Chromogenic Assay (Assay 1); assay type: biochemical; conditions: diheptanoyl thio-PC substrate, pH 7.5, 40° C. for 30 minutes, absorbance at 405 nanometers
T1 sequence (P14555 21-144): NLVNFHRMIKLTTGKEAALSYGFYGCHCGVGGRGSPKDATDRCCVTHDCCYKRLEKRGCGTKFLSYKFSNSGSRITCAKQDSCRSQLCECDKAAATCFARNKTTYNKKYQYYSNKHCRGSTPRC
Procedure: The following chromogenic assay procedure was used to identify and evaluate inhibitors of recombinant human secreted phospholipase A2. The assay described herein has been adapted for high volume screening using 96 well microtiter plates.
A measured volume of racemic dipheptanoyl thio PC supplied in chloroform at a concentration of 100 mg/ml is taken to dryness and redissolved in 10 millimolar TRITON X-100™ nonionic detergent aqueous solution. Reaction Buffer is added to the solution, then DTNB to give the Reaction Mixture.
The reaction mixture thus obtained contains 1 mM diheptanoyl thio-PC substrate, 0.29 mm Triton X-100™ detergent, and 0.12 mm DTMB in a buffered aqueous solution at pH 7.5.
1. Add 0.2 ml reaction mixture to all wells;
2. Add 10 ul test compound (or solvent blank) to appropriate wells, mix 20 seconds;
3. Add 50 nanograms of sPLA2 (10 microliters) to appropriate wells;
4. Incubate plate at 40° C. for 30 minutes;
All compounds were tested in triplicate. […] Each sample was titrated in triplicate and result values were averaged for plotting and calculation of IC50 values.

Structure (SMILES)	melting point	pIC50 [1]
CCCC(CCC)Cc1c(CC)c(C(=O)C(N)=O)c2c(OCC(=O)O)cccn12 [Compound 52f, 2-(8-Carboxymethyloxy-2-ethyl-3-(2-propylpentyl)indolizin-1-yl)glyoxylamide]	176 to 177 °C	7.77
CCc1c(C(=O)C(N)=O)c2c(OCC(=O)O)cccn2c1Cc1sccc1-c1cccs1 [Compound 52l, 2-(8-(Carboxymethyloxy)-2-ethyl-3-((3-thiophen-2-yl)thiophen-2-ylmethyl)indolizin-1-yl)glyoxylamide]	209 to 210 °C	8.00
CC(C)(C)c1c(C(=O)C(N)=O)c2c(OCC(=O)O)cccn2c1Cc1ccccc1-c1ccccc1 [Compound 58e, 2-(2-t-Butyl-8-carboxymethoxyl-3-(o-phenylbenzyl)indlolin-1-yl)glyoxylamide]	221 to 222 °C	7.00
NC(=O)C(=O)c1c(C2CCCC2)c(Cc2ccccc2-c2ccccc2)n2cccc(OCC(=O)O)c12 [Compound 58f, 2-(8-Carboxymethyloxy-2-cyclopentyl-3-(o-phenylbenzyl)indlolin-1-yl)glyoxylamide]	147 to 148 °C	6.55
CCc1c(C(=O)C(N)=O)c2c(OCC(=O)O)cccn2c1Cc1cccc(-c2ccccc2)c1 [Compound 58g, 2-(8-Carboxymethyloxy-2-ethyl-3-(m-phenylbenzyl)indlolin-1-yl)glyoxylamide]	241 to 244 °C	8.05
CCc1c(C(=O)C(N)=O)c2c(OCC(=O)O)cccn2c1CC=Cc1ccccc1 [Compound 58h, 2-(8-Carboxymethyloxy-2-ethyl-^3-(3-phenyl-2-propenyl)indlolin-1-yl)glyoxylamide]	222 to 224 °C	7.42
CCc1c(C(=O)C(N)=O)c2c(OCC(=O)O)cccn2c1CCCc1ccccc1 [Compound 58i, 2-(8-Carboxymethyloxy-2-ethyl-3-(3-phenyl-2-propanyl)indlolin-1-yl)glyoxylamide]	215 to 217 °C	7.29
NC(=O)C(=O)c1c(C2CC2)c(Cc2cccc3ccccc23)n2cccc(OCC(=O)O)c12 [Compound 58j, 2-(8-carboxymethoxyl-2-cyclopropyl-3-(1-naphthylmethyl)indlolin-1-yl)glyoxylamide]	205 to 207 °C	7.64
NC(=O)C(=O)c1c(C2CC2)c(CC2CCCCC2)n2cccc(OCC(=O)O)c12 [Compound 58k, 2-(8-carboxymethoxyl-3-cyclohexylmethyl-2-cyclopropylindolizin-1-yl)glyoxylamide]	229 to 234 °C	7.37
CCc1c(C(=O)C(N)=O)c2c(OCC(=O)OCC(=O)OC(C)(C)C)cccn2c1Cc1ccccc1-c1ccccc1 [Compound 59d]	102 to 104 °C	7.08
CCc1c(C(=O)C(N)=O)c2c(OCC(=O)OC(C)OC(=O)OC3CCCC3)cccn2c1Cc1ccccc1-c1ccccc1 (stereo not drawn) [Compound 59g, 2-(3-Biphenyl-2-ylmethyl-8-(1-cyclopentyloxycarbonyloxyethyloxycarbonylmethyloxy)-2-ethylindolizin-1-yl)glyoxylamide]	74 to 80 °C	7.41
CCc1c(C(=O)C(N)=O)c2c(OCC(=O)OCCN3CCOCC3)cccn2c1Cc1ccccc1-c1ccccc1 [Compound 59i, 2-(3-(Biphenyl-2-yl-methyl)-2-ethyl-8-(2-morpholinoethyloxycarbonylmethyloxy)indolizine-1-yl)glyoxylamide]	113 to 120 °C (dec.)	7.66
CCc1c(C(=O)C(N)=O)c2c(OCC(=O)OCC(C)=O)cccn2c1Cc1ccccc1-c1ccccc1 [Compound 59k, 2-(3-(Biphenyl-2-yl-methyl)-2-ethyl-8-(2-oxopropyloxycarbonylmethoxy)indolizine-1-yl)glyoxylamide]	159 to 162 °C	6.95
CCc1c(C(=O)C(N)=O)c2c(OCc3nnn[nH]3)cccn2c1Cc1ccccc1-c1ccccc1 [Compound 59m, 2-(3-(Biphenyl-2-yl-methyl)-2-ethyl-8-(1H-tetracol-5-ylmethyloxy)indolizine-1-yl)glyoxylamide]	206 to 209 °C (dec.)	8.15
Cc1c(C(=O)C(N)=O)c2c(OCc3ccccn3)cccn2c1Cc1ccccc1-c1ccccc1 [Compound 59n, 2-(3-Biphenyl-2-ylmethyl-2-methyl-8-(pyridin-2-ylmethoxy)-indolizin-1-yl)-glyoxylamide]	196 to 197 °C	6.22
Cc1c(C(=O)C(N)=O)c2c(OCc3ccncc3)cccn2c1Cc1ccccc1-c1ccccc1 [Compound 59o, 2-(3-Biphenyl-2-ylmethyl-2-methyl-8-(pyridin-4-ylmethoxy)-indolizin-1-yl)-glyoxylamide]	195 to 197 °C	6.31
Cc1c(C(=O)C(N)=O)c2c(OCc3ccc4ccccc4n3)cccn2c1Cc1ccccc1-c1ccccc1 [Compound 59p, 2-(3-Biphenyl-2-ylmethyl-2-methyl-8-(quinolin-2-ylmethoxy)-indolizin-1-yl)-glyoxylamide]	165 to 167 °C	6.70
CCc1c(C(=O)C(N)=O)c2c(OCCC(=O)OC)cccn2c1Cc1ccccc1-c1ccccc1 [Compound 70c, 2-(3-(Biphenyl-2-yl-methyl)-8-(2-carbomethoxyethyloxy)-2-ethylindolizine-1-yl)glyoxylamide]	159 to 162 °C	6.89
